Results from PMC7979765, “trans-Translation inhibitors bind to a novel site on the ribosome and clear Neisseria gonorrhoeae in vivo” (Nature Communications, 2021).
Values after ≈ are worked out from the molar mass of the structure shown. Read-outs that look alike come from different tables or passages of the source.

Assays:
Phosphodiesterase PDE4D2 = biological target: T1, Phosphodiesterase PDE4D2 (Homo sapiens, UniProt Q08499); assay: Receptor Profiling 154420; type: biochemical
T1 construct: Eurofins Discovery Services (contract assay) 154420
T1 sequence (Q08499 303-809 limits assumed): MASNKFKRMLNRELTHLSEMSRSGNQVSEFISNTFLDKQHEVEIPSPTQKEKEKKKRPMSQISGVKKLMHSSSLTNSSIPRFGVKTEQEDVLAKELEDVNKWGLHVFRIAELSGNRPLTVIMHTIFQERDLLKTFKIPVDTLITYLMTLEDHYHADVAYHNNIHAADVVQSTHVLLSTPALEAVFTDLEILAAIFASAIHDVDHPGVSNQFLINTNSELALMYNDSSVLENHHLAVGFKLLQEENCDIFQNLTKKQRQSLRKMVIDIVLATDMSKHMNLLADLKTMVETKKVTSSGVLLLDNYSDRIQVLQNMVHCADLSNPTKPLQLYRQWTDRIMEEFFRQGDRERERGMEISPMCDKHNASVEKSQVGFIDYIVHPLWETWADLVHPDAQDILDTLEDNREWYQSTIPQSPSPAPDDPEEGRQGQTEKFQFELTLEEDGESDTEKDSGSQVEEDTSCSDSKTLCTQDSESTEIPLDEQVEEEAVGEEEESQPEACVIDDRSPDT
Experimental: (§1) Several in vitro selectivity assays were performed at Eurofins Discovery Services using established methods and controls that behaved as expected (Supplementary Tables 5 and 6). […] For receptor panel profiling, MBX-4132 was evaluated at 10 μM and activity of >50% (agonist or antagonist; note that negative % inhibition indicates agonism) was scored as active.

Streptococcus pneumoniae = assay: MIC, microbroth dilution; type: cell-based
[1] = test system: GABAA, Flunitrazepam, Central; assay: Receptor Profiling 226600; type: binding, rat; conditions: 10 μM
Experimental: as §1

Glucocorticoid = biological target: T2, Glucocorticoid (Homo sapiens, UniProt P04150); assay: Receptor Profiling 232030; type: binding
T2 construct: purchased Eurofins Discovery Services (Panlabs safety panel)
Experimental: as §1

CYP2C19 = biological target: T3, CYP2C19 (Homo sapiens, UniProt P33261); assay: Cyp inhibition assay 4874; type: in vitro ADME; conditions: catalog reference 4874, read-out: pIC50 (µM) reported (converted)
T3 construct: Eurofins Discovery Services (contract assay) 4874
Experimental: as §1

Legionella pneumophila = assay: microbe, parasite or virus in culture; type: cell-based
Adrenergic β2 = biological target: T4, Adrenergic β2 (Homo sapiens, UniProt P07550); assay: Receptor Profiling 204110; type: binding
T4 construct: purchased Eurofins Discovery Services (Panlabs safety panel)
T4 sequence (P07550 whole entry): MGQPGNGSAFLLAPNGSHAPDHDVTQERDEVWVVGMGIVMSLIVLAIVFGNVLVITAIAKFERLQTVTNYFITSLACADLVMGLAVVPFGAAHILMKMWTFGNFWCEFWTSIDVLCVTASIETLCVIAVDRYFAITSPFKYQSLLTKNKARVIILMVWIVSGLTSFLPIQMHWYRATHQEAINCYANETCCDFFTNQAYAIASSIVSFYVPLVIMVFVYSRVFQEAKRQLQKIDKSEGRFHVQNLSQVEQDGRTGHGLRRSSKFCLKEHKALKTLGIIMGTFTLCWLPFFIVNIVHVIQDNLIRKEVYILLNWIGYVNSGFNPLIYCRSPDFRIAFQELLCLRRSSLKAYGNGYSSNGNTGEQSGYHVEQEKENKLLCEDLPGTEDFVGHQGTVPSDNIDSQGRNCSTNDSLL
Experimental: as §1

Histamine H1 = biological target: T5, Histamine H1 (Homo sapiens, UniProt P35367); assay: Receptor Profiling 239610; type: binding
T5 construct: purchased Eurofins Discovery Services (Panlabs safety panel)
Experimental: as §1

[2] = biological target: T6, Protein Tyrosine Kinase, LCK (Homo sapiens, UniProt P06239); assay: Receptor Profiling 176020; type: biochemical
T6 construct: purchased Eurofins Discovery Services (Panlabs safety panel)
T6 sequence (P06239 whole entry): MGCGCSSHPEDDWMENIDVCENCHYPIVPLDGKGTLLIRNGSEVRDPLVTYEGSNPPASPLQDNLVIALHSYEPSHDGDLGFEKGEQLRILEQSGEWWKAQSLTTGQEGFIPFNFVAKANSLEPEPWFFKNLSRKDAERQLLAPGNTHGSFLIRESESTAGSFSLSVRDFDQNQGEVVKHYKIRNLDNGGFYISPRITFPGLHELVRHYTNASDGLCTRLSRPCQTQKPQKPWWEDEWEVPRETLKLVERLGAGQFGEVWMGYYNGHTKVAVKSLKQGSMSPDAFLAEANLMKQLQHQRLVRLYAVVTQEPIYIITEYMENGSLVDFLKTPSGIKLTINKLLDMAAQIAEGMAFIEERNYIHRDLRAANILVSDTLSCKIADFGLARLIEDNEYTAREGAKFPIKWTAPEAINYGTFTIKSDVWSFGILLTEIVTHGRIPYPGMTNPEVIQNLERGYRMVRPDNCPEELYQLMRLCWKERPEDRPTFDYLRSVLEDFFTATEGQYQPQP
Experimental: as §1

[3] = biological target: T7, Serotonin (5-hydroxytryptamine) 5-HT2B (Homo sapiens, UniProt P41595); assay: Receptor Profiling 271700; type: binding
T7 construct: Eurofins Discovery Services (contract assay) 271700
Experimental: as §1

Cycloogenase COX-1 = biological target: T8, Cycloogenase COX-1 (Homo sapiens, UniProt P23219); assay: Receptor Profiling 116030; type: biochemical
T8 construct: Eurofins Discovery Services (contract assay) 116030
Experimental: as §1

[4] = test system: Calcium Channel L-Type, Dihydropyridine; assay: Receptor Profiling 214600; type: binding, rat; conditions: 10 μM
Experimental: as §1

Opiate Kappa (OP2, KOP) = biological target: T9, Opiate Kappa (OP2, KOP) (Homo sapiens, UniProt P41145); assay: Receptor Profiling 260210; type: binding
T9 construct: purchased Eurofins Discovery Services (Panlabs safety panel)
Experimental: as §1

[5] = Liver microsome stability, rat; type: in vitro ADME
Experimental: To examine potential for first-pass metabolism of analogs in the liver, the stability of analogs in the presence of liver microsome preparations (Eurofins Discovery for human, dog and rat; Xenotech for mouse) was measured using the method of Kuhnz, et al.[50]. for murine studies and Oback for the dog, human and rat studies. The amount of parent compound remaining after incubation with microsomes in the presence of NADPH over a 30 min time range was measured using a reverse-phase liquid chromatography/mass spectroscopy method that was customized for each compound. Half-lives were calculated using linear regression analysis of several time points.

[6] = biological target: T10, Transporter, Norepinephrine (NET) (Homo sapiens, UniProt P23975); assay: Receptor Profiling 204410; type: binding
T10 construct: purchased Eurofins Discovery Services 204410
T10 sequence (P23975 whole entry): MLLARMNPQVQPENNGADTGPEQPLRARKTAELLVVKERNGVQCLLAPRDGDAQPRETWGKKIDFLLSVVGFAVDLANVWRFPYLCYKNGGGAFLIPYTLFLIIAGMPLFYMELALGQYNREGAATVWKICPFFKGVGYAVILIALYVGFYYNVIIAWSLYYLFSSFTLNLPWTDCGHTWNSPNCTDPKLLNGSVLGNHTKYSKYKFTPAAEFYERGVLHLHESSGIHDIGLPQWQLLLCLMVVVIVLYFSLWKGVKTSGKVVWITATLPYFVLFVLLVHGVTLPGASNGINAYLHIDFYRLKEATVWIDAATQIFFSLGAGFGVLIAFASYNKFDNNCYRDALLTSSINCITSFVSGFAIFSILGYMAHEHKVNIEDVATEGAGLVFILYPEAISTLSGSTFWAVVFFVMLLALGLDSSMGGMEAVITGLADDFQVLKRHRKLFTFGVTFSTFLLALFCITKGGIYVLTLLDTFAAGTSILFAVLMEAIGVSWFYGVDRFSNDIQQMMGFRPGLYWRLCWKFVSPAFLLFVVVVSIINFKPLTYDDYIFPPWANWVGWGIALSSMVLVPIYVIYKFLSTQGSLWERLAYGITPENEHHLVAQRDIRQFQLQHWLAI
Experimental: as §1

Histamine H2 = biological target: T11, Histamine H2 (Homo sapiens, UniProt P25021); assay: Receptor Profiling 239710; type: binding
T11 construct: purchased Eurofins Discovery Services (Panlabs safety panel)
T11 sequence (P25021 whole entry): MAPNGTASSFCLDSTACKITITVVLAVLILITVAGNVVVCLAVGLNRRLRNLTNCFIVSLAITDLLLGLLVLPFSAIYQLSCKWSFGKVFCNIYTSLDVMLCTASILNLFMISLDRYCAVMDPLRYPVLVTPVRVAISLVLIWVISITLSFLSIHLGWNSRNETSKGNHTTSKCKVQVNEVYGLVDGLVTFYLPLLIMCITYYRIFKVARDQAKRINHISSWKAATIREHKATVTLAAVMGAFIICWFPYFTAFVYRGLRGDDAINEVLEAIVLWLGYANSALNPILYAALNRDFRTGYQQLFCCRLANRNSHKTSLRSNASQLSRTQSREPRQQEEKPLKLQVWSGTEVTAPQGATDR
Experimental: as §1

CYP2C8 = biological target: T12, CYP2C8 (Homo sapiens, UniProt P10632); assay: Cyp inhibition assay 4879; type: in vitro ADME; conditions: catalog reference 4879, read-out: pIC50 (µM) reported (converted)
T12 construct: Eurofins Discovery Services (contract assay) 4879
Experimental: as §1

[7] = biological target: T13, Cholecystokinin CKK1 (CCKA) (Homo sapiens, UniProt P32238); assay: Receptor Profiling 218030; type: binding
T13 construct: purchased Eurofins Discovery Services (Panlabs safety panel)
Experimental: as §1

Opiate Mu (OP3, MOP) = biological target: T14, Opiate Mu (OP3, MOP) (Homo sapiens, UniProt P35372); assay: Receptor Profiling 260410; type: binding
T14 construct: purchased Eurofins Discovery Services (Panlabs safety panel)
T14 sequence (P35372 whole entry): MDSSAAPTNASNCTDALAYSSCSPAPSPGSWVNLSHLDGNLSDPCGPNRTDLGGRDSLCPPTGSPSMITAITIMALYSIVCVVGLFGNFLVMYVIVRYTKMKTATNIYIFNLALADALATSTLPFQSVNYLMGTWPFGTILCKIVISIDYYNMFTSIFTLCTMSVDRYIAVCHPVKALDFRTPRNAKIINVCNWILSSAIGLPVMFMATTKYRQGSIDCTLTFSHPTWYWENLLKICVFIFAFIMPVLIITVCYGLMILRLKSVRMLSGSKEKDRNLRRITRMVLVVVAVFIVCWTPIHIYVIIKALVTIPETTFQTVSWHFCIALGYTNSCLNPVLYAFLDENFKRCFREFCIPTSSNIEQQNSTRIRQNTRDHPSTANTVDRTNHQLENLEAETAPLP
Experimental: as §1

Adenosine A2A = biological target: T15, Adenosine A2A (Homo sapiens, UniProt P29274); assay: Receptor Profiling 200610; type: binding
T15 construct: purchased Eurofins Discovery Services (Panlabs safety panel)
T15 sequence (P29274 whole entry): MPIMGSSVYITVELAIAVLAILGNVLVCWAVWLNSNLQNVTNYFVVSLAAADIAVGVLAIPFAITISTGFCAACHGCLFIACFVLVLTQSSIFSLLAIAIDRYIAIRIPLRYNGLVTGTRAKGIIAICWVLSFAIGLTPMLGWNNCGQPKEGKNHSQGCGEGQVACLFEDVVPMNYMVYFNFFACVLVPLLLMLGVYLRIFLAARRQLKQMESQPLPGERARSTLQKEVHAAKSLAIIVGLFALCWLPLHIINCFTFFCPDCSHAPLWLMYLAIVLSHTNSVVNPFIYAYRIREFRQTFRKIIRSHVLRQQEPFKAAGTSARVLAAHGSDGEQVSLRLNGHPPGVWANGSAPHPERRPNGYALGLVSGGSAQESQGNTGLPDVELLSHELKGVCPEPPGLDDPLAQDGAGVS
Experimental: as §1

Cannabinoid CB1 = biological target: T16, Cannabinoid CB1 (Homo sapiens, UniProt P21554); assay: Receptor Profiling 217050; type: binding
T16 construct: purchased Eurofins Discovery Services (Panlabs safety panel)
T16 sequence (P21554 whole entry): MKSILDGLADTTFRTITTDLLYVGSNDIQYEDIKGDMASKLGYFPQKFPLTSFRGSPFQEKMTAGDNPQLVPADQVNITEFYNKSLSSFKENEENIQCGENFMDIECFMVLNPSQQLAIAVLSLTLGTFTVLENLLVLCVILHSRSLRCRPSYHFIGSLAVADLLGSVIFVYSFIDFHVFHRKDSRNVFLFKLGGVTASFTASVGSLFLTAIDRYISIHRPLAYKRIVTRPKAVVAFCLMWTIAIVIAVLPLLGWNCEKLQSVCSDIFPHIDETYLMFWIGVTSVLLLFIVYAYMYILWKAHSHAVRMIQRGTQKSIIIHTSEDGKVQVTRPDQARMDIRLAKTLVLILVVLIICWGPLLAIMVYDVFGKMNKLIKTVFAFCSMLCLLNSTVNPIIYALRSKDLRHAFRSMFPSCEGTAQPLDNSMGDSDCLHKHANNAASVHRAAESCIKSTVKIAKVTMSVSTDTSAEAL
Experimental: as §1

CYP2B6 = biological target: T17, CYP2B6 (Homo sapiens, UniProt P20813); assay: Cyp inhibition assay 4877; type: in vitro ADME; conditions: catalog reference 4877, read-out: pIC50 (µM) reported (converted)
T17 construct: Eurofins Discovery Services (contract assay) 4877
Experimental: as §1

[8] = biological target: T18, Cholinesterase, Acetyl, ACES (Homo sapiens, UniProt P22303); assay: Receptor Profiling 104010; type: biochemical
T18 construct: Eurofins Discovery Services (contract assay) 104010
Experimental: as §1

Opiate Delta1 (OP1, DOP) = biological target: T19, Opiate Delta1 (OP1, DOP) (Homo sapiens, UniProt P41143); assay: Receptor Profiling 260130; type: binding
T19 construct: purchased Eurofins Discovery Services (Panlabs safety panel)
Experimental: as §1

Moraxella catarrhalis = assay: MIC, microbroth dilution; type: cell-based
KCNQ1/mink = biological target: T20, KCNQ1/mink (Homo sapiens, UniProt P51787); assay: cell-based
T20 construct: Eurofins Discovery Services (contract assay) CYL8007QP2DR
Experimental: as §1

Cav1.2 = biological target: T21, Cav1.2 (Homo sapiens, UniProt Q13936); assay: cell-based
T21 construct: Eurofins Discovery Services (contract assay) CYL8051QP2DR
Experimental: as §1

Haemophilus influenzae = assay: MIC, microbroth dilution; type: cell-based
hERG potassium channel = biological target: T22, hERG potassium channel (Homo sapiens, UniProt Q12809); assay: Receptor Profiling 265910; type: binding; conditions: probe [3H]dofetilide
T22 construct: purchased Eurofins Discovery Services (Panlabs safety panel)
T22 sequence (Q12809 whole entry): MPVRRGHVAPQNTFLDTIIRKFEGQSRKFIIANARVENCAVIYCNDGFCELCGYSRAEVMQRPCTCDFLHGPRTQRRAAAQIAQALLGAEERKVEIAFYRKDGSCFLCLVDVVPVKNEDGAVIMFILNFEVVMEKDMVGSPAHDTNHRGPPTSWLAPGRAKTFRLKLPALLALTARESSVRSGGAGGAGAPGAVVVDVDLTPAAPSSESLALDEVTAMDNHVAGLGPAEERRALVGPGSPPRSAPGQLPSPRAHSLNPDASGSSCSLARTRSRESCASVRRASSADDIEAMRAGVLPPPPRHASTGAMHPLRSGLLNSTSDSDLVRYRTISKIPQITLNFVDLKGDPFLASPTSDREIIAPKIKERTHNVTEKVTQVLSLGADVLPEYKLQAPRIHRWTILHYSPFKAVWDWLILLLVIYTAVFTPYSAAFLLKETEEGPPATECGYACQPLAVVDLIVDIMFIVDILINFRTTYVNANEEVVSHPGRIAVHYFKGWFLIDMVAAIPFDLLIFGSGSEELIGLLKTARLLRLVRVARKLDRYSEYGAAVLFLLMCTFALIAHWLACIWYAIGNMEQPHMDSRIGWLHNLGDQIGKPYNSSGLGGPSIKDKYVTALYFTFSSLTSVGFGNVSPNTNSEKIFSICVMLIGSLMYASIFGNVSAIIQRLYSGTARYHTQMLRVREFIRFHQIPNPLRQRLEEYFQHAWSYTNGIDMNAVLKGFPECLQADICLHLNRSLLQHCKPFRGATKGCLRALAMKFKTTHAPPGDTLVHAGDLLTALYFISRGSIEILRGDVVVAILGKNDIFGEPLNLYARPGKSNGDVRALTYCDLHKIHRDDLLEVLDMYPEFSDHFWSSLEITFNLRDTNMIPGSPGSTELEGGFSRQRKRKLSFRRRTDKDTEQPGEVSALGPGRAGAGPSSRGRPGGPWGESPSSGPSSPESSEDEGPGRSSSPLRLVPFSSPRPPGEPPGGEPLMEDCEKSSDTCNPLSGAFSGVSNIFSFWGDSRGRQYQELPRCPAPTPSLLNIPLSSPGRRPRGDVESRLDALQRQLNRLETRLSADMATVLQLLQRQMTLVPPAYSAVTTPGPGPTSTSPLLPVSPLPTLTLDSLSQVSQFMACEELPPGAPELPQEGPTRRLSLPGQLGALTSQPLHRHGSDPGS
Experimental: as §1

Glutamate, NMDA, Agonism = assay: Receptor Profiling 232810; type: binding, rat; conditions: 10 μM
Experimental: as §1

Cycloogenase COX-2 = biological target: T23, Cycloogenase COX-2 (Homo sapiens, UniProt P35354); assay: Receptor Profiling 118030; type: biochemical
T23 construct: Eurofins Discovery Services (contract assay) 118030
Experimental: as §1

Dopamine D2s = biological target: T24, Dopamine D2s (Homo sapiens, UniProt P14416); assay: Receptor Profiling 219700; type: binding
T24 construct: purchased Eurofins Discovery Services (Panlabs safety panel)
Experimental: as §1

In the case of `O=C(Nc1nnc(-c2ccc(F)cc2)o1)N1CCc2ccccc2C1` [MBX-4132], the inhibition at 10 µM (Phosphodiesterase PDE4D2) is reported as 3%, the MIC (Streptococcus pneumoniae; Streptococcus pneumoniae ATCC 49619, replicates) is reported as 34 µg/mL (≈ 100 µM) and the MIC (Streptococcus pneumoniae; Streptococcus pneumoniae, ATCC49619, strain ATCC 49619, read-out: MIC) is reported as 34 µg/mL (≈ 100 µM). The “% inhibition” value [1] was 3%, the inhibition at 10 µM (Glucocorticoid) was -2% and the IC50 (CYP2C19) was greater than 100 µM. The MIC (Legionella pneumophila; Legionella pneumophila ATCC 33153, replicates) was 8.50 µg/mL (≈ 25.1 µM), the MIC (Legionella pneumophila; Legionella pneumophila, ATCC33153) was 8.5 µg/mL (≈ 25.1 µM) and the inhibition at 10 µM (Adrenergic β2) was 35%. The inhibition at 10 µM (Histamine H1) was 11%, the inhibition at 10 µM [2] was 29% and the inhibition at 10 µM [3] was 44%. For the same compound, the inhibition at 10 µM (Cycloogenase COX-1) was 8%, the “% inhibition” value [4] was 11% and the inhibition at 10 µM (Opiate Kappa (OP2, KOP)) was 13%. The “Microsomal stability (t½, min) Rat” value ([5]; Reported value, Eurofins) was greater than 120 min, the half-life ([5]; rat, liver microsomes, read-out: Microsomal Stability (t1/2; min) Rat) was greater than 2 h and the inhibition at 10 µM [6] was 6%. For the same compound, the inhibition at 10 µM (Histamine H2) was -7%, the IC50 (CYP2C8) was greater than 100 µM and the inhibition at 10 µM [7] was 66%. For the same compound, the inhibition at 10 µM (Opiate Mu (OP3, MOP)) was 17%, the inhibition at 10 µM (Adenosine A2A) was 42% and the inhibition at 10 µM (Cannabinoid CB1) was -4%. It also gave an IC50 (CYP2B6) greater than 100 µM, an inhibition at 10 µM [8] of 6% and an inhibition at 10 µM (Opiate Delta1 (OP1, DOP)) of 5%. For the same compound, the MIC (Moraxella catarrhalis; Moraxella catarrhalis 8716, replicates) was 0.0332 µg/mL (≈ 0.0981 µM), the MIC (Moraxella catarrhalis; Moraxella catarrhalis, Moraxella catarrhalis 8716, replicates, read-out: MIC) was 0.0332 µg/mL (≈ 0.0981 µM) and the MIC (Moraxella catarrhalis; Moraxella catarrhalis, strain 8716, read-out: MIC) was 0.04 µg/mL (≈ 0.118 µM). The IC50 (KCNQ1/mink) was greater than 30 µM, the IC50 (Cav1.2) was greater than 30 µM and the MIC (Haemophilus influenzae; Haemophilus influenzae ATCC 35056, replicates) was 17 µg/mL (≈ 50.2 µM). For the same compound, the MIC (Haemophilus influenzae; Haemophilus influenzae, ATCC35056, Haemophilus influenzae ATCC 35056, replicates, read-out: MIC) was 17 µg/mL (≈ 50.2 µM), the MIC (Haemophilus influenzae; Haemophilus influenzae, ATCC35056, strain ATCC 35056, read-out: MIC) was 17.5 µg/mL (≈ 51.7 µM) and the inhibition at 10 µM (hERG potassium channel) was 27%. The “% inhibition” value (Glutamate, NMDA, Agonism) was 8%, the inhibition at 10 µM (Cycloogenase COX-2) was 10% and the inhibition at 10 µM (Dopamine D2s) was 21%.
